The values that follow are results of earlier work, collected in patent publication US20080299050A1, “TOPICAL THERAPIES FOR ORAL MUCOSITIS AND OTHER CONDITIONS” (DrugTech Corporation, priority 2006, published 2008).

For data set [1], the system named is gingiva. Conditions: administered systemically.
The test system of data set [2] is gingival wound. The following applies: by mouth for up to 8 weeks prior to gingival excision.
The conditions of data set [3]: very large dose applied topically to a pressure ulcer.
Data set [4] relates to human slin fibroblast cultures.

On to `O=C1N=C([O-])NC1(c1ccccc1)c1ccccc1.[Na+]` [phenyloin sodium], for which, in data set [1], the side effect result was “gingival hyperplasia”. For the same compound, in data set [2], the gingival wound healing entry was “greatly enhanced”.

With `O=C1NC(=O)C(c2ccccc2)(c2ccccc2)N1` [phenyloin, 5,5-diphenyl-2,4-imidazolidinedione], in data set [3], the “systemic absorption of phenyloin” value is reported as “little systemic absorption”. Moreover, in data set [4] (higher concentration (25 or 50 μg/ml) or longer incubation time (25 h or 48 h)), the “cell proliferation (enhancing effect)” value is recorded as “reduced or reversed”. Also, the cell proliferation entry in data set [4] (low concentration (5 μg/ml) and short incubation time (3 h)) is “enhanced”.
